According to the METLIN SMRT retention time set (Domingo-Almenara et al. 2019):

Assay: gradient 5% acetonitrile 3 min, to 50% in 2 min, to 85% in 15 min, held 3 min, 100 µL/min
Details: column: Zorbax Extend-C18 2.1 x 50 mm; eluents: water / acetonitrile, 0.1% formic acid
Summary of the method: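 Standards, all pure, were combined into mixtures of ~100 molecules and run at 100 μL/min on a Zorbax Extend-C18 column (2.1 × 50 mm, 1.8 μm) with water and acetonitrile, each containing 0.1% formic acid. A coupled quadrupole time-of-flight mass spectrometer operated in positive and negative ionization mode. Retention time values come from computationally picked adduct peaks, each inspected manually.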

Compound | RP-LC retention time
Cc1ccc2c(=O)c3c([nH]c2c1C)CCN(CC(=O)Nc1ccc(F)cc1)C3 | 626 s
CC(C)c1ccc2c(c1)-c1ccccc1S(=O)(=O)N2CC(=O)N1CC(=O)Nc2ccccc21 | 927 s
CCN1CCCC1CN(CC(=O)N1CCNCC1)S(=O)(=O)c1cc(C)ccc1C (stereo not given) | 581 s
CCNC(=O)CC1=C2CCCCC2N(C)C1=O (stereo not given) | 607 s
Cc1ccc(S(=O)(=O)c2cnc3cc4c(cc3c2N2CCOCC2)OCCO4)cc1 | 849 s
COc1ccccc1C(=O)N1CCC(c2cc3n(n2)CCCNC3=O)CC1 | 596 s
Cc1ccc(OCc2nn3c(-c4ccoc4C)nnc3s2)cc1C | 1090 s
COc1ccc(C(=O)N2CCC(c3cc(N)on3)CC2)c(OC)c1 | 658 s
CCCCCNC(=O)c1cn(C)nc1S(=O)(=O)N1CCSCC1 | 897 s
COc1ccc(-n2nc3c(N4CCCC(C(=O)NC5CCCC5)C4)nnc(C)c3c2C)cc1 (stereo not given) | 696 s
C=CCNC(=O)c1cnn(-c2ccc(-c3nc(C)no3)cn2)c1C | 750 s
CCOc1ccccc1NC(=O)N1c2ccccc2CC1c1nc(C2CC2)no1 (stereo not given) | 1180 s
O=C1NCCCn2cc(S(=O)(=O)Nc3ccccc3F)cc21 | 633 s
CCc1cc(C(=O)Nc2ccccc2)nc2ccnn12 | 960 s
O=C1CN(S(=O)(=O)c2cccc3cccnc23)C2(CCCC2)CN1 | 685 s
CCCS(=O)(=O)NCCS(=O)(=O)N1CCN(c2cccc(Cl)c2)CC1 | 867 s
CC(C)n1cnc(S(=O)(=O)N2CCC(C(=O)N3CCN(C(=O)c4ccco4)CC3)CC2)c1 | 636 s
COc1ccc(-c2noc(C3CC(=O)N(c4cc(Cl)ccc4OC)C3)n2)cc1 (stereo not given) | 950 s
OCCNCc1ccc(-c2cc(Cl)cc(Cl)c2)o1 | 676 s
O=C(Cn1cnc2nc(N3CCCC(C(=O)NC4CC4)C3)sc2c1=O)Nc1cccc(Cl)c1 (stereo not given) | 665 s
CCOc1ccccc1NC(=O)c1cn2c(n1)CCCC2 | 657 s
Cc1nnc(-c2ccc3ccn(CC(=O)N4CCN(Cc5ccc6c(c5)OCO6)CC4)c3c2)o1 | 651 s
O=C1/C(=C/c2ccc([N+](=O)[O-])cc2)CCc2ccccc21 | 1160 s

Compound | RP-LC retention time
O=C1CCN(C(=O)C2CCN(C(=O)C3CCC3)CC2)CCCCCCN1 | 626 s
Cc1ccc(-c2noc(-c3nnc(NCCCN4CCOCC4)c4ccccc34)n2)cc1 | 735 s
O=C(NCC1CCOCC1)c1n[nH]c2ccccc12 | 654 s
COc1cccc(CNC(=O)c2nnc(-c3ccc(S(=O)(=O)N(C)C)cc3)o2)c1OC | 829 s
CC1(C)CC(=O)c2cn(-c3ccc(F)cc3)c(=O)c(C(=O)NC3CC3)c2C1 | 814 s
Fc1ccc(Cc2nc3nccc(-c4cc5ccccc5o4)n3n2)cc1 | 1130 s
COc1ccc(NC(=O)C2CC(=O)N(CCc3c[nH]c4ccc(F)cc34)C2)cc1 (stereo not given) | 758 s
COc1ccc(NC(=O)c2cccs2)c([N+](=O)[O-])c1 | 860 s
O=C(CN1C(=O)NC2(CCCCC2)C1=O)Nc1ccc2c(c1)OCO2 | 709 s
CCN(CC)S(=O)(=O)c1ccc2c(c1)N(CC(=O)NCCN(C)C)C(=O)C1CCCCN21 (stereo not given) | 633 s
O=S(=O)(c1cc(-c2cc(C(F)(F)F)on2)cs1)N(Cc1ccco1)C1CCCCC1 | 1300 s
O=C(CN1CCN(Cc2ccc(F)cc2Cl)C1=O)NCC1CCCCC1 | 927 s
Cc1ccc(F)c(NS(=O)(=O)c2cc3n(c2)CCCNC3=O)c1 | 654 s
COc1cccc(-c2nc(-c3ccc4c(c3)nnn4CCN(C)C)no2)c1 | 595 s
Cc1noc(C)c1CNC(=O)c1cc(Cl)ccc1F | 778 s
CCC(C)NC(=O)C1CCN(C(=O)Nc2ccc(NC(=O)Nc3ccccc3)cc2)CC1 (stereo not given) | 748 s
CCc1cccc(NC(=O)CN2C(=O)CCCc3cc(S(=O)(=O)N4CCCC4)ccc32)c1 | 916 s
Cc1ccc(-c2nocc2CCC(=O)NCc2ccc3c(c2)OCO3)cc1 | 816 s
CCc1nc2cc(-c3noc(-c4cccnc4SC)n3)ccc2o1 | 1220 s
CCOc1cc2ncc(C#N)c(Nc3ccc(F)c(Cl)c3)c2cc1NC(=O)/C=C/CN(C)C | 727 s
O=C1c2ccccc2C(=O)N1c1ncn[nH]1 | 667 s
O=C(Cn1c2ccccc2c2ncn(Cc3nc(-c4ccccc4)no3)c(=O)c21)NC1CCCC1 | 912 s
Cc1cc(C(=O)NC(C)C)c2cc(F)ccc2n1 | 639 s

Compound | RP-LC retention time
Cc1cc(C)cc(Nc2cc(C)n3c(=O)n(Cc4cc(=O)n5ccccc5n4)nc3n2)c1 | 993 s
c1nc(N2CCOCC2)c2cn[nH]c2n1 | 340 s
CCOC(=O)c1[nH]c(C)c(CCC(=O)N2CCC(C(=O)NC(C)CC)CC2)c1C (stereo not given) | 723 s
COc1ccc(N2CC(c3noc(-c4cc(C)cc(C)c4)n3)CC2=O)cc1OC (stereo not given) | 1010 s
CC1=CC(C)(C(Cl)(Cl)Cl)C(C)=C/C1=N/O (stereo not given) | 1100 s
O=C(Nc1cccc(F)c1)c1cc(C2CC2)on1 | 956 s
CNC(=O)c1ccsc1NC(=O)c1cn(C)nc1OC | 616 s
COc1cc(=O)n2c(c1C(=O)Nc1ccc(Cl)c(Cl)c1)CCCC2 | 823 s
Cc1ccc(C2CC(=O)N(c3ccc(C(C)C)cc3)C(=O)C2)cc1 | 1120 s
CCOc1ccc(NC(=O)Cn2nc3c(N4CCSCC4)nccn3c2=O)cc1 | 816 s
CC(C)NC(=O)c1ccc(OCC2CCCN2C(=O)c2ccc(C#N)cc2)cc1 (stereo not given) | 734 s
O=C(NCc1csc(-c2ccccc2)n1)C1CCN(C(=O)Nc2ccccc2Cl)CC1 | 822 s
Cc1ccc(-n2c(-c3ccc(Cl)cc3)cn3c4c(=O)n(C)c(=O)n(C)c4nc23)cc1N | 870 s
O=C(c1ccsc1)N1CC(n2cc(C(=O)N3CCOCC3)nn2)C1 | 609 s
Cc1ccc(CNC(=O)C2(C)CCN(S(=O)(=O)c3ccc(C)cc3C)CC2)cc1 | 1040 s
COC(=O)c1ccc(C2CC(=O)NC3=C2C(=O)CC(c2ccc(F)cc2)C3)cc1 (stereo not given) | 820 s
Cc1nc(-c2ccccc2)nn1C1CCN(S(=O)(=O)c2cn(C)cn2)C1 (stereo not given) | 632 s
NC(=O)[C@@H](CCC(F)(F)F)N(Cc1ccc(-c2ncon2)cc1F)S(=O)(=O)c1ccc(Cl)cc1 | 1030 s
CCN1C(=O)COc2ccc(-c3noc(-c4ccc(C)cc4)n3)cc21 | 1230 s
O=C(NCCSCc1ccco1)c1cc(-c2ccccn2)nc2ccccc12 | 885 s
CCOc1ccc(N2CCCCn3c2nc2c3c(=O)n(CCC(C)C)c(=O)n2C)cc1 | 1150 s
CC(C)c1nnc2n1CCN(C(=O)CCC1CCCC1)C2 | 714 s
CCOC(=O)c1nn(-c2ccc(F)cc2)c(=O)c2c(NC(=O)C3CCCCC3)scc12 | 1250 s

Compound | RP-LC retention time
COc1ccc(N2CC(C(=O)N3CCC(C(=O)Nc4nc(C)cs4)CC3)CC2=O)cc1 (stereo not given) | 680 s
CCNC(=O)C1CCCN(S(=O)(=O)c2ccc(OC)c(OC)c2)C1 (stereo not given) | 684 s
CCCn1cc(CCNS(=O)(=O)c2c(C)c(C)cc(C)c2C)c2cccnc21 | 1060 s
Cc1ccc(OCc2nc(C)c(C(=O)N3CCC(C(N)=O)CC3)s2)cc1 | 696 s
COC1=CC(=O)O[C@H](/C=C/c2ccc3c(c2)OCO3)C1 | 809 s
CCc1cc(=O)oc2cc(C)cc(OC(C)C(=O)N3CCC4(O)CCCCC4C3)c12 (stereo not given) | 817 s
Cc1nc2cc(N3CCCC(C(=O)NCc4cccc(F)c4)C3)cnc2nc1C (stereo not given) | 735 s
O=C(NCc1ccc(F)cc1)C1CCCN(S(=O)(=O)c2c[nH]c(C(=O)N3CCCCCC3)c2)C1 (stereo not given) | 838 s
O=C(c1ccc(F)cc1Cl)N1CCc2nc(-c3ccc(Cl)cc3)ncc2C1 | 1160 s
COc1cc2ncnc(Nc3ccc(Cl)cc3F)c2cc1OC | 681 s
COCCCNC(=O)Cn1ccc2c(SCc3ccccc3)nccc21 | 636 s
O=C(CCCc1ccccc1)N1CCN(c2nc(CN3CCCCC3)cs2)CC1 | 692 s
COc1ccccc1NC(=O)c1ccc(CSc2ncccn2)cc1 | 603 s
O=C(CN1CCCCC1c1nc(-c2cccs2)no1)NCc1ccc(Cl)cc1 (stereo not given) | 1060 s
CCC(=O)Nc1ccc(-n2cnc(C(=O)N3CCN(c4cccc(C)c4C)CC3)c2)nc1 | 855 s
Cc1ccc(NC(=O)N2CCC(n3cnnc3C3CC3)C2)cc1 (stereo not given) | 635 s
COc1cc(C(=O)Nc2cccc(-c3cn4cccnc4n3)c2)cc(OC)c1OC | 642 s
CC1=C(c2ccc(C)cc2)S(=O)(=O)N=C1N1CCC(NC(=O)Cc2ccsc2)CC1 | 867 s
COc1ccc(Cn2nnc(C(=O)N3CCSCC3)c2-n2cccc2)cc1 | 884 s
CCC(=O)N1CCCN(C2=NS(=O)(=O)C(c3ccc(C)cc3)=C2C)CC1 | 742 s
Cc1cc(C)n2c(Nc3c(C)cccc3C)c(-c3ccccc3)nc2n1 | 743 s
